Assay results from a melting point compilation (Tetko et al.).

Settings: a range is the spread between reports
In the case of `CC(C)C1(C)N=C(c2ncccc2C(=O)O)NC1=O` (stereo not drawn), the melting point is reported as 171 to 172 °C.
With `CCC(CC)CC` the melting point was -119 °C.
With `O=C(C=Cc1ccccc1)c1ccc(Cl)cc1` the melting point was 96 to 99 °C.
`Cc1csc(S)n1` gave a melting point of 88 to 89.3 °C.
`CCCC(=O)NN` gave a melting point of 44 to 45.5 °C.
With `NC(=O)OCc1ccccc1` the melting point was 87 to 88 °C.
`COC=O` gave a melting point of -100 to -99 °C.
Work on `CCCCCCCC` yielded a melting point of -57 to -56.8 °C.
Molecule `c1c[nH]cn1` has a melting point of 90 to 90.5 °C.
`ClCC1CC1` gave a melting point of -91 to -90.9 °C.
Molecule `CC(=O)Nc1ccc([N+](=O)[O-])cc1` has a melting point of 215 to 216 °C.
`O=C(OCc1ccccc1)c1ccccc1` gave a melting point of 18 to 21 °C.
In the case of `CC(=O)c1ccc(Cl)cc1`, the melting point is reported as 18 to 20 °C.
Molecule `CCCCCCCCCCN` has a melting point of 13 to 17 °C.
`CCOc1ccc(NC(C)=O)cc1` showed a melting point of 134 to 138 °C.
`CC(=CC(=O)O)C(=O)O` gave a melting point of 90 to 93.5 °C.
In the case of `CCC(=O)c1ccc(Cl)cc1`, the melting point is reported as 35 to 37.3 °C.
`COc1ccccc1OC(=O)Oc1ccccc1OC` showed a melting point of 87 to 89 °C.
Work on `C#CC1(O)CCCCC1` yielded a melting point of 31.5 to 33 °C.
With `COC(=O)C(C)C` the melting point was -85 to -84.7 °C.
`O=C(O)c1ccccc1-c1ccccc1` gave a melting point of 112 to 115 °C.
`Oc1c(Cl)cc(Cl)c(Cl)c1Cc1c(O)c(Cl)cc(Cl)c1Cl` gave a melting point of 164 to 166 °C.
In the case of `O=[N+]([O-])c1ccc2c(c1)Cc1ccccc1-2`, the melting point is reported as 156 to 157 °C.
In the case of `CCC1(c2ccccc2)CCC(=O)NC1=O` (stereo not drawn), the melting point is reported as 84 to 87.5 °C.
`COC(=O)/C=C/C(=O)OC` gave a melting point of 102 to 104 °C.
`ClC=C(Cl)Cl` gave a melting point of -85 to -84.7 °C.
In the case of `COc1cc(Cc2cnc(N)nc2N)cc(OC)c1OC`, the melting point is reported as 200 to 201 °C.
With `O=C1C(=O)c2cccc3cccc1c23` the melting point was 258 to 261 °C.
Work on `C=Cc1ccc(Br)cc1` yielded a melting point of 5 to 7.7 °C.
`COc1cccc(C(=O)O)c1O` showed a melting point of 151 to 152 °C.
Molecule `Cc1ncc[nH]1` has a melting point of 143 to 144 °C.
`CCCCCCCCCCCCCCCCCCBr` gave a melting point of 28 to 28.2 °C.
`O=C(O)Cc1ccccc1Cl` showed a melting point of 95 to 96 °C.
For `CC(=O)Nc1cccc(F)c1`, the melting point was 83 to 88 °C.
In the case of `COC(=O)c1cccc([N+](=O)[O-])c1`, the melting point is reported as 78 to 80 °C.
In the case of `N#Cc1ccccc1C=O`, the melting point is reported as 104 to 108 °C.
With `ClCC(Cl)CCl` the melting point was -15 to -14 °C.
Molecule `N#CCc1ccc(CC#N)cc1` has a melting point of 95 to 96 °C.
With `c1ccc(-c2cnc(-c3ccccc3)o2)cc1` the melting point was 72 to 74 °C.
With `Clc1ccc(Cl)cc1` the melting point was 52.1 to 55 °C.
`N#CCCCCC#N` showed a melting point of 1 to 2 °C.
For `Brc1cccc2ccccc12`, the melting point was -1.8 to -1 °C.
Work on `CC12CCC(CC1)C(C)(C)O2` yielded a melting point of 1 to 1.5 °C.
`OCCSSCCO` gave a melting point of 25 to 26 °C.
Work on `CC1=CCC(C(C)(C)O)CC1O` (stereo not drawn) yielded a melting point of 130 to 131 °C.
For `CCCCCCCCCCCCCC(=O)O`, the melting point was 53.9 to 55.1 °C.
`Sc1ccc(Br)cc1` showed a melting point of 73 to 75 °C.
In the case of `N#Cc1ccc([N+](=O)[O-])cc1`, the melting point is reported as 145 to 149 °C.
Work on `C=C(C)C(C)C` yielded a melting point of -157 °C.
For `ClCCl`, the melting point was -97 to -95 °C.
Work on `O=C(O)C12CC3CC(CC(C3)C1)C2` yielded a melting point of 174 to 175 °C.
Work on `COc1ccc(O)cc1OC` yielded a melting point of 81 to 83 °C.
In the case of `CCCCC(=O)CC`, the melting point is reported as -39 to -37 °C.
In the case of `COc1cc(CCC(C)=O)ccc1O`, the melting point is reported as 40.5 to 41 °C.
In the case of `CC(Br)C(C)(Br)Br` (stereo not drawn), the melting point is reported as 1.8 to 2 °C.
For `c1ccc2cc(-c3ccc4ccccc4c3)ccc2c1`, the melting point was 187 to 188 °C.
For `CC(NC(=O)OC(C)(C)C)C(=O)O` (stereo not drawn), the melting point was 79.5 to 82 °C.
In the case of `O=C1CSC(=S)N1`, the melting point is reported as 169 to 170 °C.
In the case of `C=C(CC)CC`, the melting point is reported as -132 °C.
`CC(C)(C)OC(=O)CCC(Cl)(Cl)Cl` showed a melting point of 20 °C.
`O=Cc1cc(Br)c(O)c(Br)c1` showed a melting point of 181 to 182 °C.
`O=Cc1cc(Cl)ccc1Cl` gave a melting point of 56 to 58 °C.
For `O=C(O)C(Cl)=C(Cl)Cl`, the melting point was 73 to 76 °C.
`COP(=S)(OC)Oc1ccc(SC)c(C)c1` showed a melting point of 7 to 7.5 °C.
Molecule `c1ccc(CN(Cc2ccccc2)Cc2ccccc2)cc1` has a melting point of 91.5 to 93 °C.
`OCCc1ccc(O)cc1` showed a melting point of 90 to 91 °C.
`CCC(C)(C)C` gave a melting point of -100 to -99 °C.
In the case of `ClC1C(Cl)C(Cl)C(Cl)C(Cl)C1Cl` (stereo not drawn), the melting point is reported as 159 to 160 °C.
